Reference: EP0568307A1, “Cosmetic composition containing alpha hydroxy carboxylic acids as preservatives” (priority 1992, dated 1993)

Assays:
Format in all cases: cell-based
[1] = tested on: one of the test organisms; assay: Challenge test, inoculations to failure, Series V (organism not stated in Table 10); conditions: 1% w/w added to oil-in-water skin cream, pH 5.5
Description: (§1) This test involved incubating under standard conditions test compositions which have been inoculated with a selected bacterium, yeast or a mixture of moulds. […] Accordingly, the higher the number of "challenges", the better is the preservative. substance in preventing or at least delaying microbial spoilage.
(§2) The method of testing was as follows: • i) Introduce aseptically 99 ml of test composition into a 250 ml flask and add 1 ml of inoculum of one of the test organisms (see above), to provide a dilution of 10⁶ cells/ml in the composition. • ii) mix and incubate at 28°C for 24 hours. • iii) remove 1 ml of incubated composition from the flask and add to it 9 ml of peptone water/Tween 80 as diluent and mix thoroughly. • iv) place 1 ml of diluted sample into a petri dish and add warm, molten agar (40°C) and mix to distribute culture uniformly and allow to set. • v) incubate plates for 3 days at 28°C and then count colonies and note log reduction of count (due to the presence of the preservative in the original culture composition).
(§3) The inoculation of the organisms originally introduced into each composition is then repeated at 24 hour intervals, following removal of the first total viable count sample, the plating out and counting procedure being repeated on each occasion. The test is terminated when the samples show a contamination level greater than 10² counts per ml on 2 consecutive days. This point is regarded as the failure point for the composition under test.
(§4) The greater the number of inoculations of contaminant organisms before this level of contamination is established in the composition, the better the preservative system.
Various preservative materials were added to samples of this base formulation. The resulting compositions were subjected to the mould challenge test, as set out in Table 10 below.

[2] = tested on: Aspergillus niger & Penicillium sp.; assay: Mould challenge test (mould spore suspension, viable count after 1, 7, 14, 28 days); conditions: pH 5.5
Description: (§5) The micro-organisms selected for this test were: • i) Pseudomonas cepacia - a gram-negative bacterium, • ii) Candida parapsilosis - a yeast, and • iii) Aspergillus niger & Penicillium sp., - a mixture of moulds.
The above procedure applies to the inoculation of the bacterium and the yeast, and this procedure was varied slightly with the mixed culture of moulds as follows: • i) two samples of each test composition (9.9 ml and 9 ml) were transferred to sterile flasks and 0.1 ml or 1 ml of a mould spore suspension (approximately 10⁸ spores per ml) was introduced into the respective samples and thoroughly mixed. The inoculated samples were incubated at 28°C for up to 28 days with 1 ml samples being aseptically removed for the total viable count as outlined above using Sabouraud's dextrose agar after 1, 7, and 28 days. • ii) "Low risk" compositions eliminate mould spores in 1 to 2 days, "medium risk" compositions take 7 to 14 days to eliminate the spores and the "high risk" compositions still have surviving mould spores after 14 days incubation.

[3] = tested on: Pseudomonas cepacia; assay: Challenge test, repeated inoculation with a bacterium until failure; conditions: Series IV, pH 5.5
Description: A test was devised to assess the ability of selected hydroxyorganic acids to preserve, against microbial spoilage, compositions according to the invention and, by way of comparison, others containing conventional chemical preservative substances.
as §1, §5, §2, §3, §4

[4] = Series V, 1% w/w added to oil-in-water skin cream
[5] = Series IV, 0.1 % w/w in water-in-oil cream
[6] = Series IV, 0.25 % w/w in water-in-oil cream
[7] = Series IV, 0.5 % w/w in water-in-oil cream
[8] = Series IV, 0.75 % w/w in water-in-oil cream
[9] = Series IV, 1 % w/w in water-in-oil cream

CCCCCCCCCCCC(=O)O [Lauric acid, reference compound]
No of inoculations to failure [1]: 1
mould challenge 1% [2, 4]: ++++

CCCCCCC(O)C(=O)O (stereo not shown) [2-hydroxyoctanoic acid]
No of inoculations to failure [1]: >20
mould challenge 1% [2, 5]: ++
mould challenge 10% [2, 5]: ++
mould challenge 1% [2, 6]: ++
mould challenge 10% [2, 6]: ++
mould challenge 1% [2, 7]: +
mould challenge 10% [2, 7]: ++
mould challenge 1% [2, 8]: +
mould challenge 10% [2, 8]: ++
mould challenge 1% [2, 9]: -
mould challenge 10% [2, 9]: -
mould challenge 1% [2, 4]: +
number of inoculations of bacteria to failure ([3]; 0.1 % w/w in water-in-oil cream): 4
number of inoculations of bacteria to failure ([3]; 0.25 % w/w in water-in-oil cream): 4
number of inoculations of bacteria to failure ([3]; 0.5 % w/w in water-in-oil cream): 20
number of inoculations of bacteria to failure ([3]; 0.75 % w/w in water-in-oil cream): >20
number of inoculations of bacteria to failure ([3]; 1 % w/w in water-in-oil cream): >20

CCCCCCCCCCCC(=O)OCC(O)CO (stereo not shown) [Monolaurin, reference compound]
No of inoculations to failure [1]: 1
mould challenge 1% [2, 4]: ++++

COCCCCCCCC=CCC(O)C(=O)O (stereo not shown) ['oxa' hydroxy acid, 2-Hydroxy-13-oxa-4-tetradecenoic acid]
preservation against the mould challenge (in words) ([2]; Series II): good preservation
